Test system: T1, MbCld
T1 construct: gene cld; native, soluble protein fraction of chlorate-grown cells; not purified
Experiment: chloride ion selective electrode, initial rates, Michaelis-Menten fit
Type: biochemical, Magnetospirillum bellicus
Conditions: 10 mM phosphate buffer pH 7.0, 21–23°C; soluble protein fraction
Text: chloride ion selective electrode, initial rates, Michaelis-Menten fit on MbCld

Molecule `[O-][Cl+]O` [chlorite] has a Km of 360 ± 210 µM.
